Measurements as given in patent publication US12077503B2, “Substituted cyclic amides and their use as herbicides” (FMC CORPORATION, priority 2015, dated 2024).

Columns and labels:
Format in all cases: in vivo
Kochia (Kochia scoparia) [1] = assay: Test A preemergence; details: Preemergence
In short: (§1)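 Compounds were formulated in a non-phytotoxic solvent mixture with surfactant and applied as a preemergence directed soil spray after seeding, or sprayed postemergence over plants 2 to 10 cm tall at the one- to two-leaf stage. Evaluation after about 10 d compared treated with untreated controls, using a scale from 0 (no effect) to 100 (complete control).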

[2] = test system: barnyardgrass (Echinochloa crus-galli); assay: Test A preemergence; details: Preemergence
In short: as §1

[3] = test system: giant foxtail (Setaria faberii); assay: Test A preemergence; details: Preemergence
In short: as §1

[4] = test system: pigweed (Amaranthus retroflexus); assay: Test A preemergence; details: Preemergence
[5] = test system: ragweed (common ragweed, Ambrosia elatior); assay: Test A preemergence; details: Preemergence
In short: as §1

[6] = test system: ryegrass, Italian (Italian ryegrass, Lolium multiflorum); assay: Test A preemergence; details: Preemergence
In short: as §1

[7] = test system: Galium (catchweed bedstraw, Galium aparine); assay: Test A postemergence
In short: as §1

Kochia (Kochia scoparia) [8] = assay: Test A postemergence
In short: as §1

[9] = test system: barnyardgrass (Echinochloa crus-galli); assay: Test A postemergence
In short: as §1

[10] = test system: blackgrass (Alopecurus myosuroides); assay: Test A postemergence
In short: as §1

corn (Zea mays) = assay: Test A postemergence
In short: as §1

[11] = test system: giant foxtail (Setaria faberii); assay: Test A postemergence
In short: as §1

[12] = test system: pigweed (Amaranthus retroflexus); assay: Test A postemergence
In short: as §1

[13] = test system: ragweed (common ragweed, Ambrosia elatior); assay: Test A postemergence
In short: as §1

[14] = test system: ryegrass, Italian (Italian ryegrass, Lolium multiflorum); assay: Test A postemergence
In short: as §1

[15] = test system: wheat (Triticum aestivum); assay: Test A postemergence
In short: as §1

[16] = test system: barnyardgrass (Echinochloa crus-galli); assay: Test B flooded paddy test; details: Flood, 250 g ai/ha; 0 to 100 scale where 0 is no effect and 100 is complete control; 13 to 15 d
In short: (§2)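 2-leaf plants; pots flooded 3 cm over soil; cpd added to paddy water; depth held; greenhouse 13–15 d; visual rating vs controls, 0 = no effect, 100 = complete control.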

[17] = test system: ducksalad (Heteranthera limosa); assay: Test B flooded paddy test; details: Flood, 250 g ai/ha; 0 to 100 scale where 0 is no effect and 100 is complete control; 13 to 15 d
In short: as §2

rice (Oryra sativa) = assay: Test B flooded paddy test; details: Flood, 250 g ai/ha; 0 to 100 scale where 0 is no effect and 100 is complete control; 13 to 15 d
In short: as §2

[18] = test system: sedge, umbrella (small-flower umbrella sedge, Cyperus difformis); assay: Test B flooded paddy test; details: Flood, 250 g ai/ha; 0 to 100 scale where 0 is no effect and 100 is complete control; 13 to 15 d
In short: as §2

[19] = 125 g ai/ha, visual injury after approximately 10 d, 0 to 100 scale where 0 is no effect and 100 is complete control
[20] = 500 g ai/ha, visual injury approx. 10 d
[21] = 125 g ai/ha, postemergence, visual rating after approx. 10 d, 0 to 100 scale (0 no effect, 100 complete control)
[22] = Postemergence, 500 g ai/ha, 0 to 100 scale where 0 is no effect and 100 is complete control

Structure (SMILES): CC(C)Oc1cccc(C2CNC(=O)C2C(=O)Nc2ccccc2F)c1 (stereo not drawn) [Compound 552]
- Plant response rating, Kochia (Kochia (Kochia scoparia) [1]; [19]): 0
- Kochia plant response rating (0 to 100 scale, 0 is no effect, 100 is complete control) (Kochia (Kochia scoparia) [1]; [20]): 70
- Plant response rating, Barnyardgrass [2, 19]: 90
- Barnyardgrass plant response rating (0 to 100 scale, 0 is no effect, 100 is complete control) [2, 20]: 90
- Plant response rating, Foxtail, Giant [3, 19]: 90
- Foxtail, Giant plant response rating (0 to 100 scale, 0 is no effect, 100 is complete control) [3, 20]: 90
- Plant response rating, Pigweed [4, 19]: 0
- Pigweed plant response rating (0 to 100 scale, 0 is no effect, 100 is complete control) [4, 20]: 0
- Plant response rating, Ragweed [5, 19]: 0
- Ragweed plant response rating (0 to 100 scale, 0 is no effect, 100 is complete control) [5, 20]: 60
- Plant response rating, Ryegrass, Italian [6, 19]: 20
- Ryegrass, Italian plant response rating (0 to 100 scale, 0 is no effect, 100 is complete control) [6, 20]: 40
- Plant response rating, Galium [7, 21]: 40
- Plant response rating, Galium [7, 22]: 60
- Plant response rating, Kochia (Kochia (Kochia scoparia) [8]; [21]): 0
- Plant response rating, Kochia (Kochia (Kochia scoparia) [8]; [22]): 30
- Plant response rating, Barnyardgrass [9, 21]: 80
- Plant response rating, Barnyardgrass [9, 22]: 90
- Plant response rating, Blackgrass [10, 21]: 30
- Plant response rating, Blackgrass [10, 22]: 70
- Plant response rating, Corn (corn (Zea mays); [21]): 20
- Plant response rating, Corn (corn (Zea mays); [22]): 50
- Plant response rating, Foxtail, Giant [11, 21]: 70
- Plant response rating, Foxtail, Giant [11, 22]: 80
- Plant response rating, Pigweed [12, 21]: 0
- Plant response rating, Pigweed [12, 22]: 0
- Plant response rating, Ragweed [13, 21]: 0
- Plant response rating, Ragweed [13, 22]: 20
- Plant response rating, Ryegrass, Italian [14, 21]: 30
- Plant response rating, Ryegrass, Italian [14, 22]: 50
- Plant response rating, Wheat [15, 21]: 0
- Plant response rating, Wheat [15, 22]: 40
- Plant response rating, Barnyardgrass [16]: 60
- Plant response rating, Ducksalad [17]: 100
- Plant response rating, Rice (rice (Oryra sativa)): 10
- Plant response rating, Sedge, Umbrella [18]: 0
